Key:
[1] = tested on: Madin Darby canine kidney cell line transfected with human MDR-1 gene; assay: MDR/MDCK bidirectional transwell permeability assay; assay type: in vitro ADME
Procedure: (§1) See, Wang, Q. et al, Evaluation of the MDR-MDCK Cell Line As a Permeability Screen For The Blood Brain Barrier, Int. J. Pharm. 288(2) 349-359. The assay is a bidirectional assay in a transwell format system, assessing the permeability of compounds across a Madin Darby canine kidney cell line transfected with human MDR-1 gene. Efflux is assessed based on ratios from the basolateral and apical sides of the chamber.

[2] = tested on: human MDR-1 (P-gp); assay: as above; assay type: in vitro ADME, canine; conditions: dog
Procedure: as §1

Question: How did the “Brain Penetration Classification” value [1] turn out when `CCN(CC)CCNC(=O)/C=N/O.Cl` [Example 1, N-(2-(diethylamino)ethyl)-2-(hydroxyimino)acetamide hydrochloride] was run?
Answer: Low

Question: What about the Papp A→B ([2]; MDCK-MDR1, apical to basolateral) of the same compound?
Answer: < 0.51 ×10⁻⁶ cm/s

Question: What about the Papp B→A ([2]; MDCK-MDR1, basolateral to apical) of the same compound?
Answer: < 0.67 ×10⁻⁶ cm/s

Question: For `CS(=O)(=O)[O-].CS(=O)(=O)[O-].ON=Cc1cc[n+](C[n+]2ccc(C=NO)cc2)cc1` [MMB4 DMS], which “Brain Penetration Classification” value [1] is on record?
Answer: Low

Question: And the “Papp A-B” value ([1]; apical to basolateral)?
Answer: <0.57 ×10⁻⁶ cm/s

Question: And the “Papp B-A” value ([1]; basolateral to apical)?
Answer: <0.57 ×10⁻⁶ cm/s

— patent US8653108B1, “Oximes for treatment of peripheral and central nervous system exposure to acetyl cholinesterase inhibitors” (priority 2011, dated 2014)
